Tested on: platelets
Assay: Platelet quality, platelets in 100% plasma, amotosalen 30-110 μM, 340 nm device ~7.2 J/cm^2
Method: Multiple donor platelet units in 10000 plasma (5 units, ˜278-391 mL) were pooled and split into 5 units of ˜285 mL each, to be used as an untreated control, or treated with amotosalen at different concentrations, with ultraviolet A illumination using the 340 nm device. Amotosalen was added to a concentration of 30, 60, 90 or 110 μM, then pre-illumination (pre-UV) samples were removed for analysis, and the remainder of the units subjected to illumination at ˜7.2 J/cm^2. Post-illumination (Post-UV) samples were then removed for post-treatment analysis.

Cc1oc2c(C)c3oc(=O)cc(C)c3cc2c1COCCN [S-59, 3-(2-aminoethoxymethyl)-2,5,9-trimethylfuro[3,2-g]chromen-7-one]
Glucose (30 μM, D3): 14.9 mmol/L | LDH (30 μM, D3): 14.5 LDH IU/10^11 platelets | Lactate (30 μM, D3): 6.9 mmol/L | Platelet counts (30 μM, D3): 1155 x10^3 cells/μL | Platelet lysis (30 μM, D3): 5.22% | pCO2 at 37° C. (30 μM, D3): 38.1 mm Hg | pH at 22° C. (30 μM, D3): 7.43 | pH at 37° C. (30 μM, D3): 7.21 | pO2 at 37° C. (30 μM, D3): 74.6 mm Hg | Glucose (30 μM, D7): 11.9 mmol/L | LDH (30 μM, D7): 17.4 LDH IU/10^11 platelets | Lactate (30 μM, D7): 12.1 mmol/L | Platelet counts (30 μM, D7): 1155 x10^3 cells/μL | Platelet lysis (30 μM, D7): 6.10% | pCO2 at 37° C. (30 μM, D7): 31.2 mm Hg | pH at 22° C. (30 μM, D7): 7.32 | pH at 37° C. (30 μM, D7): 7.10 | pO2 at 37° C. (30 μM, D7): 78.5 mm Hg | Glucose (30 μM, Post-UV): 15.9 mmol/L | LDH (30 μM, Post-UV): 15.0 LDH IU/10^11 platelets | Lactate (30 μM, Post-UV): 5.7 mmol/L | Platelet counts (30 μM, Post-UV): 1115 x10^3 cells/μL | Platelet lysis (30 μM, Post-UV): 5.31% | pCO2 at 37° C. (30 μM, Post-UV): 50.2 mm Hg | pH at 22° C. (30 μM, Post-UV): 7.37 | pH at 37° C. (30 μM, Post-UV): 7.15 | pO2 at 37° C. (30 μM, Post-UV): 13.9 mm Hg | Glucose (30 μM, Pre-UV): 16.0 mmol/L | LDH (30 μM, Pre-UV): 13.7 LDH IU/10^11 platelets | Lactate (30 μM, Pre-UV): 5.4 mmol/L | Platelet counts (30 μM, Pre-UV): 1200 x10^3 cells/μL | Platelet lysis (30 μM, Pre-UV): 4.92% | pCO2 at 37° C. (30 μM, Pre-UV): 52.4 mm Hg | pH at 22° C. (30 μM, Pre-UV): 7.36 | pH at 37° C. (30 μM, Pre-UV): 7.14 | pO2 at 37° C. (30 μM, Pre-UV): 28.6 mm Hg | Glucose (60 μM, D3): 15.0 mmol/L | LDH (60 μM, D3): 13.9 LDH IU/10^11 platelets | Lactate (60 μM, D3): 6.8 mmol/L | Platelet counts (60 μM, D3): 1152 x10^3 cells/μL | Platelet lysis (60 μM, D3): 5.15% | pCO2 at 37° C. (60 μM, D3): 38.1 mm Hg | pH at 22° C. (60 μM, D3): 7.43 | pH at 37° C. (60 μM, D3): 7.20 | pO2 at 37° C. (60 μM, D3): 65.8 mm Hg | Glucose (60 μM, D7): 11.6 mmol/L | LDH (60 μM, D7): 36.5 LDH IU/10^11 platelets | Lactate (60 μM, D7): 11.8 mmol/L | Platelet counts (60 μM, D7): 1041 x10^3 cells/μL | Platelet lysis (60 μM, D7): 11.82% | pCO2 at 37° C. (60 μM, D7): 31.2 mm Hg | pH at 22° C. (60 μM, D7): 7.32 | pH at 37° C. (60 μM, D7): 7.09 | pO2 at 37° C. (60 μM, D7): 78.0 mm Hg | Glucose (60 μM, Post-UV): 15.9 mmol/L | LDH (60 μM, Post-UV): 14.3 LDH IU/10^11 platelets | Lactate (60 μM, Post-UV): 5.6 mmol/L | Platelet counts (60 μM, Post-UV): 1117 x10^3 cells/μL | Platelet lysis (60 μM, Post-UV): 5.10% | pCO2 at 37° C. (60 μM, Post-UV): 49.2 mm Hg | pH at 22° C. (60 μM, Post-UV): 7.37 | pH at 37° C. (60 μM, Post-UV): 7.15 | pO2 at 37° C. (60 μM, Post-UV): 20.4 mm Hg | Glucose (60 μM, Pre-UV): 16.2 mmol/L | LDH (60 μM, Pre-UV): 13.6 LDH IU/10^11 platelets | Lactate (60 μM, Pre-UV): 5.4 mmol/L | Platelet counts (60 μM, Pre-UV): 1160 x10^3 cells/μL | Platelet lysis (60 μM, Pre-UV): 4.71% | pCO2 at 37° C. (60 μM, Pre-UV): 52.4 mm Hg | pH at 22° C. (60 μM, Pre-UV): 7.36

Source: patent US12214092B2, “Systems and methods for treating biological fluids” (Cerus Corporation, priority 2017, dated 2025)
